Experimental findings from patent publication US7662832B2, “Pyrrolo[2,3-c]pyridine derivatives and processes for the preparation thereof” (priority 2004, dated 2010) are described below.

The target of assay [1] is Proton Pump (H^+/K^+-ATPase) (Sus scrofa, UniProt P19156). In words: Inhibitory effects on proton pump (H^+/K^+-ATPase) activity. To be noted: hog gastric vesicles; K^+ stimulated H^+/K^+-ATPase activity; 30 minutes at 37° C. The format is biochemical.
Assay [2] has as its system basal gastric acid secretion. In words: Inhibitory effects on basal gastric acid secretion in pylorus-ligated rats (Shay's rat model). The format is in vivo, Sprague Dawley (SD) rats. To be noted: oral, one hour before pylorus ligation, total acid output 5 hours after ligation. How it is done:
Inhibitory effects of the compounds of the present invention on basal gastric acid secretion were performed according to Shay's rat model (Shay, H., et al., 1945, gastroenterology, 5, 43-61). Male Sprague Dawley (SD) rats (200±10 g body weight) were divided into […] (n=5) and fasted for 24 hours with free access to water. Control group was orally administered with 0.5% methylcellulose alone and the other groups were orally administered with test compounds suspended in 0.5% methylcellulose solution at doses of 1, 3 and 10 mg/kg/5 ml one hour before pylorus ligation.
Under ether anesthesia, the abdomens of the rats were incised and then the pylorus was ligated. 5 hours after ligation, the animals were sacrificed, and the gastric contents were collected. The collected contents were centrifuged at 1,000×g for 10 minutes to obtain the gastric juice. Total acid output was measured by 0.01N NaOH volume (ueq/ml) for automatic titration of the gastric juice to pH 7.0 and the ED50s of test compounds were calculated using the Litchfield-Wilcoxon method. % inhibitory activity was calculated from the following equation and the results are shown in Table 2. % inhibitory activity of test compound=(total acid output of control group−total acid output of the group treated with test compounds)/total acid output of control group×100

For assay [3], the target named is T1, hog gastric H^+/K^+-ATPase (Sus scrofa, UniProt P19156).
T1 construct: from tissue; host or cells: hog gastric fundic mucosa; gastric vesicles (microsomes), lyophilized
The experiment in a line: Reversible inhibition of hog gastric H^+/K^+-ATPase (washout method). The format is biochemical. How it is done: 3-1. Preparation of Gastric Vesicles
[…]. IX. Fraction and purification of K-ATPase-containing vesicles by zonal centrifugation and free-flow electrophoresis techinque. Biochem. Biophy. Acta. (BBA)-Biomembranes 465, 311-330, 1977). This matertal was lyophilized and stored at −70° C. The protein content of gastric vesicles was determined by the Bradford method using bovine serum albumin as a standard (Bradford M M, A rapid and sensitive method for the quantitation of microgram quantities of protein utilizing the principle of protein-dye binding. Anal Biochem. 72, 248-254, 1976).
3-2. Determination of Reversible Inhibition of Hog Gastric H^+/K^+-ATPase
Activity of H^+/K^+-ATPase in hog microsome (lyophilized vesicle) was measured by the inorganic phosphate released from ATP using an one-step calorimetric detection method at the concentration at which the test compounds have 50% inhibition of the proton pump (Chan K M, Delfert D, and Junger K D, A direct calorimetric assay for Ca^2+-stimulated ATPase activity. Anal Biochem, 157, 375-380, 1986). The mode of action of test compounds on H^+/K^+-ATPase was investigated according to the Washout method (Beil W, Staar U, and Sewing K F, Substituted thieno[3,4-d]imidazoles, a novel group of H^+/K+-ATPase inhibitors. Differentiation of their inhibition charactertstics from those of omeprazole. Eur. J. Pharmacol., 187, 455-67, 1990). […]

T1 sequence (P19156 2-1034 limits assumed): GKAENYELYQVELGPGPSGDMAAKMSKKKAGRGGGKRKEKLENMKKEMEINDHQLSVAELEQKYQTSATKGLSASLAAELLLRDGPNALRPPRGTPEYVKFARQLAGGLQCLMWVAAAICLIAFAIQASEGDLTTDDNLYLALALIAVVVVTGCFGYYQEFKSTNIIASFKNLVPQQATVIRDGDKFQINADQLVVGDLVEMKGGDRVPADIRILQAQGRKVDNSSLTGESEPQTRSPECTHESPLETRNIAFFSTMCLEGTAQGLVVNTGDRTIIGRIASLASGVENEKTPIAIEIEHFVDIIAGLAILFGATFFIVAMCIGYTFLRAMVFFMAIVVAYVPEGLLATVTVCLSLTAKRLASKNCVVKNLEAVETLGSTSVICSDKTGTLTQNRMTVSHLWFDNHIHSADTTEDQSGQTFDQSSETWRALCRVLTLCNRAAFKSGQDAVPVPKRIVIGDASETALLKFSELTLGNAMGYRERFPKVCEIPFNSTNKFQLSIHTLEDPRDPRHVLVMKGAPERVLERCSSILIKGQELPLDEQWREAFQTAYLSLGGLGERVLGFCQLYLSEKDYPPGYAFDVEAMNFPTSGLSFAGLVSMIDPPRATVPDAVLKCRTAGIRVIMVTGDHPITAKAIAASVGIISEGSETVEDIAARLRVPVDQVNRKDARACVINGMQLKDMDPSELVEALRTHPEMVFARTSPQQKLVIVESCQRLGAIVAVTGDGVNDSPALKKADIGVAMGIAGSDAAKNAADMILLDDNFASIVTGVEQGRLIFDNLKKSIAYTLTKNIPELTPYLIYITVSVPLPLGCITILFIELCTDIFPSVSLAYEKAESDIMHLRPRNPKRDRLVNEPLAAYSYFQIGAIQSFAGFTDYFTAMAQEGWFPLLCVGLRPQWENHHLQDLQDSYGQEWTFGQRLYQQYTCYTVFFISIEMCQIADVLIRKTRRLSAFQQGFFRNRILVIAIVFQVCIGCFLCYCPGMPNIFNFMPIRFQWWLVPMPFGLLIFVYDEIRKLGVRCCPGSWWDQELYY
T1 sequence (P18434 whole entry partner): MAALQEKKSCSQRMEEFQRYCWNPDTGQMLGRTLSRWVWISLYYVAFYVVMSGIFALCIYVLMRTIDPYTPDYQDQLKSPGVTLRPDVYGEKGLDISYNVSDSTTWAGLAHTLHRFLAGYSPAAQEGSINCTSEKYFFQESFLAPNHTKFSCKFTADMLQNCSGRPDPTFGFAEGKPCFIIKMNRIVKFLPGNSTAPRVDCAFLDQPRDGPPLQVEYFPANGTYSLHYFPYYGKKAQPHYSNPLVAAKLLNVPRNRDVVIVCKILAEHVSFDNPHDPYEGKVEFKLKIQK
Proton Pump (H^+/K^+-ATPase), sequence (P19156 2-1034 limits assumed): as the sequence (P19156 2-1034 limits assumed) above
Proton Pump (H^+/K^+-ATPase), sequence (P18434 whole entry partner): as the sequence (P18434 whole entry partner) above

Compound `Cc1c(C)n(Cc2cccc(F)c2)c2c(N3CCc4ccccc4C3)nccc12.Cl` [Example 480, 1-(3-fluorobenzyl)-7-(1,2,3,4-tetrahydroisoquinolin-2-yl)-2,3-dimethyl-1H-pyrrolo[2,3-c]pyridine hydrochloride] registered an IC50 in assay [1] of 32 nM. The compound further gave an ED50 in assay [2] of 1.8 mg/kg. The “inhibition of H^+/K^+-ATPase activity after washout” value in assay [3] (after washout, compared with non-treated group) was “did not inhibit”. In addition, the “inhibition of H^+/K^+-ATPase activity before washout” value in assay [3] (before washout, test compound at the concentration of 50% inhibition of the proton pump) turned out to be 50%.

As a reminder, the IC50 is the concentration at which inhibition is half-maximal. By ED50 is commonly meant the midpoint of the dose-response relation. The low end stands for an effect at a small dose, the high end for a need for a large dose.
